# Experimental data taken from patent EP1806346B1, “Substituted piperazine compounds and their use as fatty acid oxidation inhibitors” (CV THERAPEUTICS, INC., priority 2002, dated 2004).
# pIC50: −log10 of the molar value.
# Tested on: Palmitoyl CoA oxidation
# Test: Mitochondrial assay: palmitoyl CoA oxidation
# Format: biochemical
# Settings: Rat heart mitochondria, 16 µM 1-14C palmitoyl CoA, 15 min at 30°C, 14C bicarbonate counted; read-out: PalmCoA IC50
# Experimental: Rat heart mitochondria were isolated by the method ofNedergard and Cannon (Methods in Enzymol. 55, 3, 1979).
# Palmitoyl CoA oxidation - The Palmityl CoA oxidation was carried out in a total volume of 100 µL containing the following agents: 110 mM KCl, 33 mM Tris buffer at pH 8, 2 mM KPi, 2 mM MgCl2, 0.1 mM EDTA, 14.7 µM defatted BSA, 0.5 mM malic acid, 13 mM carnitine, 1 mM ADP, 52 µg of mitochondrial protein, and 16 µM 1-14C palmitoyl CoA (Sp. Activity 60 mCi/mmole; 20 µCi/mL, using 5 µL per assay). The compounds of this invention were added in a DMSO solution at the following concentrations: 100 µM, 30 µM, and 3 µM. In each assay, a DMSO control was used. After 15 min at 30°C, the enzymatic reaction was centrifuged (20,000 g for 1 min), and 70 µL of the supernatant was added to an activated reverse phase silicic acid column (approximately 0.5 mL of silicic acid). The column was eluted with 2 mL of water, and 0.5 mL of the eluent was used for scintillation counting to determine the amount of ^14C trapped as ^14C bicarbonate ion.
row,Structure (SMILES),pIC50
1,O=C(CN1CCN(C[C@@H](O)COc2ccc3oc(-c4ccccc4)nc3c2)CC1)Nc1ccc2ncccc2c1,5.21
2,Cc1nc2cc(OC[C@H](O)CN3CCN(CC(=O)Nc4cccc(-c5ccccc5)c4)CC3)ccc2s1,6.74
3,O=C(CN1CCN(C[C@@H](O)COc2ccc3oc(-c4ccccc4)nc3c2)CC1)Nc1cccc(Oc2ccccc2)c1,5.07
4,Cc1nc2cc(OC[C@H](O)CN3CCN(CC(=O)Nc4cccc5cccnc45)CC3)ccc2s1,5.28
5,Cc1nc2cc(OC[C@H](O)CN3CCN(CC(=O)Nc4cccc5c4CCC5)CC3)ccc2s1,4.82
6,Cc1nc2cc(OC[C@H](O)CN3CCN(CC(=O)N[C@H]4CCCc5ccccc54)CC3)ccc2s1,7.10
7,CCn1c2ccccc2c2cc(NC(=O)CN3CCN(C[C@@H](O)COc4ccc5sc(C)nc5c4)CC3)ccc21,6.07
8,Cc1nc2cc(OC[C@H](O)CN3CCN(CC(=O)N[C@@H](C)c4ccc5ccccc5c4)CC3)ccc2s1,6.07
9,Cc1nc2cc(OC[C@H](O)CN3CCN(CC(=O)Nc4nc(-c5ccc(Cl)cc5)cs4)C[C@@H]3C)ccc2s1,6.40
10,Cc1nc2cc(OC[C@H](O)CN3CCN(CC(=O)N[C@@H](C)c4ccccc4)CC3)ccc2s1,5.36
11,Cc1nc2cc(OC[C@H](O)CN3CCN(CC(=O)Nc4nc(-c5ccc(Cl)cc5)cs4)CC3)ccc2s1,5.15
12,Cc1nc2cc(OC[C@H](O)CN3CCN(CC(=O)Nc4ccc(Oc5ccccc5)cc4)CC3)ccc2s1,6.48
